{
  "source": "paper PMC3501516",
  "about": "“Anti-Diabetic Efficacy and Impact on Amino Acid Metabolism of GRA1, a Novel Small-Molecule Glucagon Receptor Antagonist” (PLoS ONE, 2012)",
  "key": {"[1]": {"details": "hGCGR.ob/ob mice, 10 mg/kg•day food admixture, 5 weeks"}, "[2]": {"system": "perfused liver from hGCGR mice", "assay": "Glucagon-stimulated glycogenolysis in perfused liver from hGCGR mouse (13C NMR)", "details": "50 pM glucagon", "experimental": "Livers were perfused with Ringers solution containing 6.7 mM [2-^13C]pyruvate while ^13C content (indicative of accumulated [^13C]glycogen) was monitored dynamically by nuclear magnetic resonance imaging. At time = −22 min, 0.1–3.0 uM GRA1 or vehicle was added to the perfusate; 50 pM glucagon or vehicle was added at time 0. The data are means ±SEM.\nGlycogen content of perfused hGCGR mouse liver was measured as previously described [30]. In brief, livers were perfused ex vivo with Ringers solution containing 6.7 mM [2-^13C]pyruvate while ^13C content (indicative of accumulated [^13C]glycogen) was monitored dynamically by nuclear magnetic resonance imaging."}, "rhesus monkey liver": {"system": "rhesus monkey liver", "assay": "Hepatic gene expression (Affymetrix microarray of liver biopsies) in rhesus monkeys", "assay_type": "in vivo", "details": "30 mg/kg twice daily", "procedure": "Hepatic gene expression was assessed by liver biopsy in adult rhesus monkeys that had been treated twice daily for 1 and 6 days with 30 mg/kg GRA1 or vehicle. The compound was administered to the animals orally in yogurt or a similar treat while they were housed in their home cages. The animals were fasted for approximately 16 h prior to performing liver biopsies laparoscopically, under anesthesia. On biopsy days, animals received their morning doses of GRA1 2 h before the biopsies were performed.\nTotal RNA was processed for Affymetrix microarray analysis as previously described. Briefly, total RNA was isolated from frozen tissues after homogenizing in TRIzol reagent (Invitrogen, Carlsbad, CA) and processed using RNeasy kits (QIAGEN, Valencia, CA) according to manufacturers' instructions. Sample amplification, labeling, and microarray processing were performed by the Covance Genomics Laboratory in Seattle, WA using the Affymetrix catalog Rhesus array (Affymetrix, Santa Clara, CA). One-way ANOVA analyses were performed with Matlab (The Mathworks, Natick, MA). Probesets had to pass a pre-filter of Affymetrix MAS5 present call p value <0.05 in >50% of the samples to qualify for further analysis. Differentially expressed genes (probesets) were selected with 1.2-fold change and ANOVA p value <0.05."}, "human GCGR (hGCGR)": {"biological_target": "T1, human GCGR (hGCGR) (Homo sapiens, UniProt P47871)", "T1 construct": "expressed in transfected cells", "T1 sequence (P47871 26-477)": "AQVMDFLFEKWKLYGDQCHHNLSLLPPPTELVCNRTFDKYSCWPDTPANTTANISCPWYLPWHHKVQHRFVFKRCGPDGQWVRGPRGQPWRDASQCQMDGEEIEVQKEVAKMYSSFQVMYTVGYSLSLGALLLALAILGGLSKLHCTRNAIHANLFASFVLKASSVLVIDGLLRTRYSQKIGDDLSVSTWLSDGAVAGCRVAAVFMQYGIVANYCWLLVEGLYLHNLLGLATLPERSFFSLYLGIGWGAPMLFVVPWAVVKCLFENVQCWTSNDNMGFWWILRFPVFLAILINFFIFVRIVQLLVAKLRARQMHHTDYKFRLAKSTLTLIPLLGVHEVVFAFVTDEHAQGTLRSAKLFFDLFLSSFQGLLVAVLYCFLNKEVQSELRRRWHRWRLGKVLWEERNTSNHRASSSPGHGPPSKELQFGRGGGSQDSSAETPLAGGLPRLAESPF", "assay": "Inhibition of glucagon-stimulated cAMP production in intact CHO cells expressing human GCGR", "assay_type": "cell-based", "description": "Transfected Chinese hamster ovary (CHO) cell lines were acquired and maintained as previously described, [20]. These included separate cell lines stably expressing human GCGR (hGCGR), mouse GCGR, rhesus GGCR, glucose-dependent insulinotropic peptide receptor (GIPR), GLP-1 receptor (GLP-1R), pituitary adenylate cyclase-activating polypeptide receptor type 1 (PAC1R), and vasoactive adenylate cyclase-activating polypeptide receptor type 2 (VPAC2R). Inhibition of glucagon binding to hGCGR was assayed in cell membranes prepared from the line of CHO cells that expressed the hGCGR. Functional antagonism was assayed by measuring the production of cAMP in intact CHO cells stimulated by agonists specific for their cognate receptors (i.e., glucagon for GCGR-expressing cell lines, GIP for the GIPR-expressing line, etc.). Primary human hepatocytes were obtained from In Vitro Technologies (Baltimore, MD) and glucagon-stimulated glycogenolysis was studied in these as previously described."}, "[3]": {"biological_target": "T2, GIPR (glucose-dependent insulinotropic peptide receptor) (Homo sapiens, UniProt P48546)", "T2 sequence (P48546 22-466)": "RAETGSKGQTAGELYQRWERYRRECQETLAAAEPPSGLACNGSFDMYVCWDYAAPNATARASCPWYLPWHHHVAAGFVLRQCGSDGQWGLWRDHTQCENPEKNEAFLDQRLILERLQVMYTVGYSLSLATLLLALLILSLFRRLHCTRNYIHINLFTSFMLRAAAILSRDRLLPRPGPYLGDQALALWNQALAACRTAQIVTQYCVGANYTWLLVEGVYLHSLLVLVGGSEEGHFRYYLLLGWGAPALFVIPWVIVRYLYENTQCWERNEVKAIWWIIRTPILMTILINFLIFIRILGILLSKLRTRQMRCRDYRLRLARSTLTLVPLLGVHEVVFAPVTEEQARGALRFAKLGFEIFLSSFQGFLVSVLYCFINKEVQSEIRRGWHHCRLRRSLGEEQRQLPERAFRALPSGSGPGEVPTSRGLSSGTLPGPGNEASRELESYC", "assay": "Inhibition of GIP-stimulated cAMP production in CHO cells expressing GIPR", "assay_type": "cell-based", "experimental": "Transfected Chinese hamster ovary (CHO) cell lines were acquired and maintained as previously described [17], [20]. These included separate cell lines stably expressing human GCGR (hGCGR), mouse GCGR, rhesus GGCR, glucose-dependent insulinotropic peptide receptor (GIPR), GLP-1 receptor (GLP-1R), pituitary adenylate cyclase-activating polypeptide receptor type 1 (PAC1R), and vasoactive adenylate cyclase-activating polypeptide receptor type 2 (VPAC2R). […] Functional antagonism was assayed by measuring the production of cAMP in intact CHO cells stimulated by agonists specific for their cognate receptors (i.e., glucagon for GCGR-expressing cell lines, GIP for the GIPR-expressing line, etc.)."}, "in vivo": {"assay": "in vivo", "details": "hGCGR.ob/ob, mouse, 3 mg/kg"}},
  "note": "Where two headings read alike, the source gives them in different places.",
  "data": [
    {"smiles": "COc1ccc2cc(-c3cc(-c4cc(C(F)(F)F)ccc4F)nn3[C@@H](C)c3ccc(C(=O)NCCC(=O)O)cc3)ccc2c1", "note": "[GRA1, N-[4-((1S)-1-{3-(2-fluoro-5-trifluoromethylphenyl)-5-[6-methoxynaphth-2-yl]-1H-pyrazol-1-yl}ethyl)benzoyl]-β-alanine]", "values": [
      {"measurement": "Mean GRA1 plasma concentration", "setting": "[1]; 4 PM", "value": "0.77 ± 0.2", "unit": "µM"},
      {"measurement": "Mean GRA1 plasma concentration", "setting": "[1]; 9AM", "value": "1.7 ± 0.5", "unit": "µM"},
      {"measurement": "Reduction of hepatic response to glucagon (13C glycogen loss)", "setting": "[2]; 0.3 µM GRA1 pretreatment", "value": "about 50%"},
      {"measurement": "Hepatic response to glucagon (13C glycogen loss)", "setting": "[2]; 1 µM GRA1 pretreatment", "value": "completely prevented"},
      {"measurement": "Hepatic response to glucagon (13C glycogen loss)", "setting": "[2]; 3 µM GRA1 pretreatment", "value": "completely prevented"},
      {"measurement": "AASS (aminoadipate-semialdehyde synthase) hepatic expression, fold difference vs vehicle", "setting": "rhesus monkey liver; Day 1", "value": "−2.0", "unit": "fold"},
      {"measurement": "AGXT2L1 hepatic expression, fold difference vs vehicle", "setting": "rhesus monkey liver; Day 1", "value": "−1.5", "unit": "fold"},
      {"measurement": "ASL (argininosuccinate lyase) hepatic expression, fold difference vs vehicle", "setting": "rhesus monkey liver; Day 1", "value": "−1.5", "unit": "fold"},
      {"measurement": "BCKDHB hepatic expression, fold difference vs vehicle", "setting": "rhesus monkey liver; Day 1", "value": "−1.4", "unit": "fold"},
      {"measurement": "DDC (dopa decarboxylase) hepatic expression, fold difference vs vehicle", "setting": "rhesus monkey liver; Day 1", "value": "−1.4", "unit": "fold"},
      {"measurement": "FH (fumarate hydratase) hepatic expression, fold difference vs vehicle", "setting": "rhesus monkey liver; Day 1", "value": "−1.2", "unit": "fold"},
      {"measurement": "GCKR (glucokinase regulator) hepatic expression, fold difference vs vehicle", "setting": "rhesus monkey liver; Day 1", "value": 1.5, "unit": "fold"},
      {"measurement": "GPT (alanine aminotransferase) hepatic expression, fold difference vs vehicle", "setting": "rhesus monkey liver; Day 1", "value": "−1.5", "unit": "fold"},
      {"measurement": "HPD (4-hydroxyphenylpyruvate dioxygenase) hepatic expression, fold difference vs vehicle", "setting": "rhesus monkey liver; Day 1", "value": "−1.3", "unit": "fold"},
      {"measurement": "KMO (kynurenine 3-monooxygenase) hepatic expression, fold difference vs vehicle", "setting": "rhesus monkey liver; Day 1", "value": "−1.3", "unit": "fold"},
      {"measurement": "OAT (ornithine aminotransferase) hepatic expression, fold difference vs vehicle", "setting": "rhesus monkey liver; Day 1", "value": "−1.9", "unit": "fold"},
      {"measurement": "SDS (serine dehydratase) hepatic expression, fold difference vs vehicle", "setting": "rhesus monkey liver; Day 1", "value": "−8.8", "unit": "fold"},
      {"measurement": "SDSL (serine dehydratase-like) hepatic expression, fold difference vs vehicle", "setting": "rhesus monkey liver; Day 1", "value": "−1.6", "unit": "fold"},
      {"measurement": "SLC7A2 hepatic expression, fold difference vs vehicle", "setting": "rhesus monkey liver; Day 1", "value": "−1.8", "unit": "fold"},
      {"measurement": "TAT (tyrosine aminotransferase) hepatic expression, fold difference vs vehicle", "setting": "rhesus monkey liver; Day 1", "value": "−1.8", "unit": "fold"},
      {"measurement": "ARG1 (arginase, liver) hepatic expression, fold difference vs vehicle", "setting": "rhesus monkey liver; Day 1 (ns)", "value": "−1.1", "unit": "fold"},
      {"measurement": "GCK (glucokinase) hepatic expression, fold difference vs vehicle", "setting": "rhesus monkey liver; Day 1 (ns)", "value": 2.4, "unit": "fold"},
      {"measurement": "GLS2 (glutaminase 2) hepatic expression, fold difference vs vehicle", "setting": "rhesus monkey liver; Day 1 (ns)", "value": "−1.3", "unit": "fold"},
      {"measurement": "GOT1 hepatic expression, fold difference vs vehicle", "setting": "rhesus monkey liver; Day 1 (ns)", "value": "−1.5", "unit": "fold"},
      {"measurement": "PAH (phenylalanine hydroxylase) hepatic expression, fold difference vs vehicle", "setting": "rhesus monkey liver; Day 1 (ns)", "value": "−1.5", "unit": "fold"},
      {"measurement": "SLC1A2 hepatic expression, fold difference vs vehicle", "setting": "rhesus monkey liver; Day 1 (ns)", "value": "−1.6", "unit": "fold"},
      {"measurement": "AASS (aminoadipate-semialdehyde synthase) hepatic expression, fold difference vs vehicle", "setting": "rhesus monkey liver; Day 6", "value": "−3.0", "unit": "fold"},
      {"measurement": "AGXT2L1 hepatic expression, fold difference vs vehicle", "setting": "rhesus monkey liver; Day 6", "value": "−1.8", "unit": "fold"},
      {"measurement": "ARG1 (arginase, liver) hepatic expression, fold difference vs vehicle", "setting": "rhesus monkey liver; Day 6", "value": "−1.3", "unit": "fold"},
      {"measurement": "ASL (argininosuccinate lyase) hepatic expression, fold difference vs vehicle", "setting": "rhesus monkey liver; Day 6", "value": "−1.6", "unit": "fold"},
      {"measurement": "BCKDHB hepatic expression, fold difference vs vehicle", "setting": "rhesus monkey liver; Day 6", "value": "−1.3", "unit": "fold"},
      {"measurement": "FH (fumarate hydratase) hepatic expression, fold difference vs vehicle", "setting": "rhesus monkey liver; Day 6", "value": "−1.2", "unit": "fold"},
      {"measurement": "GCK (glucokinase) hepatic expression, fold difference vs vehicle", "setting": "rhesus monkey liver; Day 6", "value": 5.4, "unit": "fold"},
      {"measurement": "GCKR (glucokinase regulator) hepatic expression, fold difference vs vehicle", "setting": "rhesus monkey liver; Day 6", "value": 1.3, "unit": "fold"},
      {"measurement": "GLS2 (glutaminase 2) hepatic expression, fold difference vs vehicle", "setting": "rhesus monkey liver; Day 6", "value": "−1.6", "unit": "fold"},
      {"measurement": "GOT1 hepatic expression, fold difference vs vehicle", "setting": "rhesus monkey liver; Day 6", "value": "−2.1", "unit": "fold"},
      {"measurement": "GPT (alanine aminotransferase) hepatic expression, fold difference vs vehicle", "setting": "rhesus monkey liver; Day 6", "value": "−1.3", "unit": "fold"},
      {"measurement": "HPD (4-hydroxyphenylpyruvate dioxygenase) hepatic expression, fold difference vs vehicle", "setting": "rhesus monkey liver; Day 6", "value": "−1.2", "unit": "fold"},
      {"measurement": "KMO (kynurenine 3-monooxygenase) hepatic expression, fold difference vs vehicle", "setting": "rhesus monkey liver; Day 6", "value": "−1.5", "unit": "fold"},
      {"measurement": "OAT (ornithine aminotransferase) hepatic expression, fold difference vs vehicle", "setting": "rhesus monkey liver; Day 6", "value": "−3.6", "unit": "fold"},
      {"measurement": "PAH (phenylalanine hydroxylase) hepatic expression, fold difference vs vehicle", "setting": "rhesus monkey liver; Day 6", "value": "−2.1", "unit": "fold"},
      {"measurement": "SDS (serine dehydratase) hepatic expression, fold difference vs vehicle", "setting": "rhesus monkey liver; Day 6", "value": "−27.1", "unit": "fold"},
      {"measurement": "SLC1A2 hepatic expression, fold difference vs vehicle", "setting": "rhesus monkey liver; Day 6", "value": "−7.6", "unit": "fold"},
      {"measurement": "SLC7A2 hepatic expression, fold difference vs vehicle", "setting": "rhesus monkey liver; Day 6", "value": "−2.4", "unit": "fold"},
      {"measurement": "DDC (dopa decarboxylase) hepatic expression, fold difference vs vehicle", "setting": "rhesus monkey liver; Day 6 (ns)", "value": "−1.1", "unit": "fold"},
      {"measurement": "SDSL (serine dehydratase-like) hepatic expression, fold difference vs vehicle", "setting": "rhesus monkey liver; Day 6 (ns)", "value": "−1.5", "unit": "fold"},
      {"measurement": "TAT (tyrosine aminotransferase) hepatic expression, fold difference vs vehicle", "setting": "rhesus monkey liver; Day 6 (ns)", "value": "−1.7", "unit": "fold"},
      {"measurement": "IC50", "setting": "human GCGR (hGCGR)", "value": 12, "unit": "nM"},
      {"measurement": "IC50", "setting": "[3]", "value": 933, "unit": "nM"},
      {"measurement": "concentration at 1 h", "setting": "in vivo", "value": "1120 ± 800", "unit": "nM"},
      {"measurement": "concentration at 3 h", "setting": "in vivo", "value": "920 ± 100", "unit": "nM"}
    ]}
  ]
}
